Results reported in patent publication US20070015232A1, “Mitotic index assay” (DiscoveRx, Inc., priority 2005, published 2007).

What was measured:
[1] = tested on: Clone #69 CHO-K1 cells expressing EA-NLS/NRS and GR-PL; assay: EFC assay in stable clone #69 (CHO-K1, EA-NLS/NRS and GR-PL) with or without RU486 pre-incubation; format: cell-based; conditions: overnight, vehicle pre-incubation
Procedure: In the next experiment, a stable clone (clone #69) expressing both EA-NLS/NRS and GR-PL was isolated in a CHO-K1 parental background. […] 20,000 cells/well were plated in a 96 well white coming multi-well plate and allowed to adhere overnight. The next day, the cells were washed two times with serum free F12 media and 100 μL of serum free F12 media was added to the cells. The cells were then incubated in either vehicle (ethanol-1% final concentration) or 10 μM RU486 for one hour. To the cells, three different concentrations of dexamethasone (300, 100, 30 μM) (an agonist of GR), RU486 (30, 10, 3.33 μM), colchicine (1, 0.3, 0.1 μ/mL) or nocodazole (10, 3.33, 1.11 μg/mL) were added and the incubation went overnight at 37° C. with 5% CO2. The next day, the media was aspirated off and 100 μL of Tropix/ABI Gal screen cell lysis/substrate reagent was added to the cells. The plate was read on the Victor II reader at 30, 60 and 120 minutes.

[2] = tested on: C2C12+EA-NLS/NRS+GR-PL cells; assay: EFC mitotic index assay, C2C12+EA-NLS/NRS+GR-PL cells (Stanford GR cells); format: cell-based, mouse; conditions: 24 hours, 30 min read
Procedure: (§1) In all experiments described, 20,000 cells/well were plated in a 96 well Corning clear bottom white plate in a total volume of 100 μL. The cells were treated for 24 hours with 5 μL of either the appropriate vehicle control or varying concentrations of the six compounds listed above. The next day, 100 μL of Tropix/ABI Gal screen cell lysis buffer/substrate mixture (24:1 ratio of component) was added to the cells/media and the plate was read on the Victor II luminescent plate reader at 30, 60 and 120 minutes after the lysis/substrate addition.
(§2) The initial test of the cell cycle arresting compounds was performed on a double stable cell line having both of the constructs expressing the EA-NLS/NRS and GR-PL. (PL is β-galactosidase enzyme donor fragment and EA is the enzyme acceptor fragment available from DiscoveRx, Fremont, CA.). The parental line, C2C12 is derived from mouse muscle cells. In the experiments in which EA-NLS/NRS and GR-PL are expressed in the C2C12 parental cell line, the constructs were generated by subcloning the human GR sequence into a MFG-based retroviral vector that had been molecularly altered in a lab at Stanford. An MFG vector is described in U.S. Pat. No. 6,544,771. The EA-NLS/NRS fragment was subcloned into a wzl-based retroviral vector again molecularly altered in a lab at Stanford. In the experiments performed using a CHO-K1 parental cell line background the EA-NLS/NRS was subcloned into the Kpn I and Xba I sites of pcDNA3.1 Hygro vector from Invitrogen (catalog #V870-20). The plasmid was introduced into the cells via FuGene6 (Roche) transfection reagent. Cells were selected in the presence of 250 μg/mL of Hygromycin and single cell clones isolated that expressed the EA-NLS/NRS. The human GR gene was cloned by PCR and subcloned into the Xho I and Bam HI sites of the DiscoveRx vector-pCMV-myc-PL (C3). The plasmid was introduced into the selected EA-NLS/NRS expressing clone isolated above by FuGene 6 transfection. Another round of screening in the presence of 300-500 μg/mL of G418 was used to select GR-PL transfected clones. Clonal selection was performed to finally identify the clone that was used in these studies. In the studies using the CHO-K1+cyto-EA and cJUN-PL, the same Invitrogen pcDNA3.1 Hygro vector was used to express EA. In this case, the EA fragment was subcloned into the Kpn I/Not I sites of pcDNA3.1 Hygro. The plasmid DNA was introduced as described above using FuGene6 reagent. Cells were selected in the presence of 250 μg/mL of hygromycin and clonal selection was performed. The c-Jun gene was generated by PCR using an existing template copy of the gene and then subcloned into the Xho I/Bam HI sites of pCMV-PL-myc (C3).

[3] = tested on: CHO-K1+EA-NLS/NRS+GR-PL cells; assay: EFC mitotic index assay, CHO-K1+EA-NLS/NRS+GR-PL cells, antibiotic selected pool (DX M19/GR pool); format: cell-based; conditions: for Avg luminescence readout / R1 luminescence readout / R3 luminescence readout / Ratio (Avg vs 0 conc): 24 hours, 30 min read
Procedure: as §1, §2
In the next experiment, an antibiotic selected pool population of CHO-K1 cells that express EA-NLS/NRS and GR-PL were tested with the same six set of cell cycle blocking compounds. […] FIGS. 2a and 2b show the immunofluorescence localization of EA and GR-PL in that the blue DAPI nuclear staining can be seen to be concentrated in the nucleus, while the green fluorescein stain on the antibody (from Abcam PLC) to the glucocorticoid receptor is seen in the cytoplasm. […] Again, six tables are presented one for each of the six drugs tested.
This only occurs with compounds that block the cells in mitosis, allowing EA and ProLabel to complement.

[4] = tested on: CHO-K1+cyto-EA cells transfected with cJUN-PL; assay: EFC mitotic index assay, CHO-K1+cyto-EA cells transiently transfected with cJUN-PL; format: cell-based; conditions: for Avg luminescence readout / R1 luminescence readout / R3 luminescence readout / Ratio (Avg vs 0 conc): overnight
Procedure: as §2
To further test the concept of sequestering of one β-galactosidase enzyme fragment in the nucleus (in this case PL) while localizing the other component in the cytoplasm (in this case EA) the following experiment was carried out. […] The cyto-EA cells were transiently transfected with cJUN-PL plasmid DNA. Two days after the transfection, the cells were re-plated into a 96 well Corning white clear bottom multiwell plate at 20,000 cells/well. The cells were allowed to adhere overnight and the next day were treated with titrating concentrations of the six different cell cycle blocking compounds. The incubation was carried out overnight. The next day the media was removed from the cells and 100 μL of Tropix/ABI Gal screen cell lysis/substrate reagent was added to the cells.

[5] = High conc (nocodazole 10 μg/mL, colchicine 1 μ/mL, dexamethasone 300 μM, RU486 30 μM)
[6] = Low conc (nocodazole 1.11 μg/mL, colchicine 0.1 μ/mL, dexamethasone 30 μM, RU486 3.33 μM)
[7] = Med conc (nocodazole 3.33 μg/mL, colchicine 0.3 μ/mL, dexamethasone 100 μM, RU486 10 μM)

C[C@@H]1C[C@H]2[C@@H]3CCC4=CC(=O)C=C[C@]4(C)[C@@]3(F)[C@@H](O)C[C@]2(C)[C@@]1(O)C(=O)CO [Dexamethasone, dexamethasone]
Avg luminescence readout [1, 5]: 2559
R1 luminescence readout [1, 5]: 3173
R3 luminescence readout [1, 5]: 1934
Ratio (Avg vs 0 conc) [1, 5]: 7
Avg luminescence readout [1, 6]: 1258
R1 luminescence readout [1, 6]: 1528
R3 luminescence readout [1, 6]: 1016
Ratio (Avg vs 0 conc) [1, 6]: 3
Avg luminescence readout [1, 7]: 1697
R1 luminescence readout [1, 7]: 2033
R3 luminescence readout [1, 7]: 1290
Ratio (Avg vs 0 conc) [1, 7]: 4

NC(=O)NO [Hydroxyurea]
Avg luminescence readout ([2]; 1.0 μg/mL): 11689
R1 luminescence readout ([2]; 1.0 μg/mL): 12080
R3 luminescence readout ([2]; 1.0 μg/mL): 11424
Ratio (Avg vs 0 conc) ([2]; 1.0 μg/mL): 1
Avg luminescence readout ([2]; 3.3 μg/mL): 11522
R1 luminescence readout ([2]; 3.3 μg/mL): 12588
R3 luminescence readout ([2]; 3.3 μg/mL): 11171
Ratio (Avg vs 0 conc) ([2]; 3.3 μg/mL): 1
Avg luminescence readout ([2]; 10.0 μg/mL): 9211
R1 luminescence readout ([2]; 10.0 μg/mL): 8813
R3 luminescence readout ([2]; 10.0 μg/mL): 9419
Ratio (Avg vs 0 conc) ([2]; 10.0 μg/mL): 1
Avg luminescence readout ([2]; 30.0 μg/mL): 7221
R1 luminescence readout ([2]; 30.0 μg/mL): 7272
R3 luminescence readout ([2]; 30.0 μg/mL): 7165
Ratio (Avg vs 0 conc) ([2]; 30.0 μg/mL): 1
Avg luminescence readout ([3]; 1.0 μg/mL): 4562
R1 luminescence readout ([3]; 1.0 μg/mL): 4403
R3 luminescence readout ([3]; 1.0 μg/mL): 4740
Ratio (Avg vs 0 conc) ([3]; 1.0 μg/mL): 1
Avg luminescence readout ([3]; 3.3 μg/mL): 4389
R1 luminescence readout ([3]; 3.3 μg/mL): 4423
R3 luminescence readout ([3]; 3.3 μg/mL): 4304
Ratio (Avg vs 0 conc) ([3]; 3.3 μg/mL): 1
Avg luminescence readout ([3]; 10.0 μg/mL): 3959
R1 luminescence readout ([3]; 10.0 μg/mL): 3865
R3 luminescence readout ([3]; 10.0 μg/mL): 3897
Ratio (Avg vs 0 conc) ([3]; 10.0 μg/mL): 1
Avg luminescence readout ([3]; 30.0 μg/mL): 3793
R1 luminescence readout ([3]; 30.0 μg/mL): 3825
R3 luminescence readout ([3]; 30.0 μg/mL): 3785
Ratio (Avg vs 0 conc) ([3]; 30.0 μg/mL): 1
increase in EFC activity (in words) ([3]; overnight treatment): did not cause an increase in EFC activity
Avg luminescence readout ([4]; 3.0 μg/mL): 7420
R1 luminescence readout ([4]; 3.0 μg/mL): 7319
R3 luminescence readout ([4]; 3.0 μg/mL): 6690
Ratio (Avg vs 0 conc) ([4]; 3.0 μg/mL): 1.2
Avg luminescence readout ([4]; 10.0 μg/mL): 7634
R1 luminescence readout ([4]; 10.0 μg/mL): 8237
R3 luminescence readout ([4]; 10.0 μg/mL): 6699
Ratio (Avg vs 0 conc) ([4]; 10.0 μg/mL): 1.3
Avg luminescence readout ([4]; 30.0 μg/mL): 6984
R1 luminescence readout ([4]; 30.0 μg/mL): 7217
R3 luminescence readout ([4]; 30.0 μg/mL): 6624
Ratio (Avg vs 0 conc) ([4]; 30.0 μg/mL): 1.2
Avg luminescence readout ([4]; 100.0 μg/mL): 7742
R1 luminescence readout ([4]; 100.0 μg/mL): 7955
R3 luminescence readout ([4]; 100.0 μg/mL): 7483
Ratio (Avg vs 0 conc) ([4]; 100.0 μg/mL): 1.3
increase in EFC activity (in words) ([4]; overnight incubation): negligible increase in EFC activity

CC#C[C@]1(O)CC[C@H]2[C@@H]3CCC4=CC(=O)CCC4=C3[C@@H](c3ccc(N(C)C)cc3)C[C@@]21C [RU486]
Avg luminescence readout [1, 5]: 2882
R1 luminescence readout [1, 5]: 3199
R3 luminescence readout [1, 5]: 2657
Ratio (Avg vs 0 conc) [1, 5]: 1
Avg luminescence readout [1, 6]: 2416
R1 luminescence readout [1, 6]: 2692
R3 luminescence readout [1, 6]: 2298
Ratio (Avg vs 0 conc) [1, 6]: 1
Avg luminescence readout [1, 7]: 2402
R1 luminescence readout [1, 7]: 2578
R3 luminescence readout [1, 7]: 2249
Ratio (Avg vs 0 conc) [1, 7]: 1
